Test results: the OPERA property sets (Mansouri et al. 2018)

Compared with `Cc1ncc(CO)c(C=NNC(=O)c2ccccc2)c1O`, `Cc1ncc(CO)c(C=NNC(=O)c2cccc(Br)c2)c1O` is higher in logP: 2.23 for the first, 3.07 for the second.

Going from `O=C(NN=Cc1ccccc1O)c1cccc(F)c1` to `O=C(NN=Cc1ccccc1O)c1cccc(Br)c1`, the logP rises from 3.41 to 3.91.

Going from `O=C(NN=Cc1ccccc1O)c1ccccc1` to `O=C(NN=Cc1ccccc1O)c1cccc(Cl)c1`, the logP rises from 3.01 to 3.83.

First: COc1ccc(C(=O)NN=Cc2c(O)ccc3ccccc23)cc1
Second: Nc1ccc(C(=O)NN=Cc2c(O)ccc3ccccc23)cc1
The logP of the first is higher: 4.06 for the first, 3.04 for the second.

Compared with `Cc1ncc(CO)c(C=NNC(=O)c2ccc(N)cc2)c1O`, `Cc1ncc(CO)c(C=NNC(=O)c2ccc(O)cc2)c1O` is higher in logP: 1.19 for the first, 1.89 for the second.

Going from `CC(=O)NN=Cc1ccccc1O` to `O=C(NN=Cc1ccccc1O)c1cccs1`, the logP rises from 1.71 to 3.03.

First: CC(=O)NN=Cc1c(O)ccc2ccccc12
Second: O=C(NN=Cc1c(O)ccc2ccccc12)c1ccco1
The logP of the first is lower: 2.91 for the first, 3.41 for the second.

First: Oc1ccccc1C=NNc1ccccn1
Second: O=C(NN=Cc1ccccc1O)c1ccncc1
The logP of the first is higher: 3.24 for the first, 2.16 for the second.

Going from `CC(C)(C)c1ccc(C(=O)NN=Cc2ccccc2O)cc1` to `Cc1ccc(C(=O)NN=Cc2ccccc2O)cc1`, the logP falls from 4.73 to 3.39.

First: Cc1ncc(CO)c(C=NNc2ccccn2)c1O
Second: Cc1ncc(CO)c(C=NNC(=O)c2ccncc2)c1O
The logP of the first is higher: 2.46 for the first, 1.14 for the second.

Going from `O=C(NN=Cc1ccccc1O)c1ccc([N+](=O)[O-])cc1` to `O=C(NN=Cc1ccccc1O)c1ccc(O)cc1`, the logP falls from 3.03 to 2.56.

First: O=C(NN=Cc1ccccc1O)c1ccco1
Second: Nc1ccc(C(=O)NN=Cc2ccccc2O)cc1
The logP of the first is higher: 2.67 for the first, 2.16 for the second.

`O=C(NN=Cc1c(O)ccc2ccccc12)c1cccc(F)c1` and `O=C(NN=Cc1c(O)ccc2ccccc12)c1ccc(O)cc1` are within 0.2 log units of each other in logP: 4.06 for the first, 3.95 for the second.

`COc1ccc(C(=O)NN=Cc2c(CO)cnc(C)c2O)cc1` and `Cc1ccc(C(=O)NN=Cc2c(CO)cnc(C)c2O)cc1` are within 0.2 log units of each other in logP: 2.47 for the first, 2.54 for the second.

Going from `O=C(NN=Cc1c(O)ccc2ccccc12)c1ccc([N+](=O)[O-])cc1` to `Cc1ncc(CO)c(C=NNC(=O)c2ccc([N+](=O)[O-])cc2)c1O`, the logP falls from 3.58 to 1.55.

Compared with `Cc1ncc(CO)c(C=NNC(=O)c2cccc(Cl)c2)c1O`, `Cc1ncc(CO)c(C=NNC(=O)c2cccc(F)c2)c1O` is lower in logP: 2.96 for the first, 2.42 for the second.

Compared with `Cc1ncc(CO)c(C=NNC(=O)c2cccs2)c1O`, `Cc1ncc(CO)c(C=NNC(=O)c2ccco2)c1O` is lower in logP: 2.11 for the first, 1.39 for the second.

First: Cc1ncc(CO)c(C=NNC(=O)c2ccc(C(C)(C)C)cc2)c1O
Second: CC(=O)NN=Cc1c(CO)cnc(C)c1O
The logP of the first is higher: 3.73 for the first, 0.65 for the second.

For `COc1ccc(C(=O)NN=Cc2ccccc2O)cc1`, the logP was 3.34.
